Legend:
[1] = biological target: T1, SENP7 (Homo sapiens, UniProt Q9BQF6); test: DUB-Glo bioluminescent peptide substrate assay, SENP7; type: biochemical; details: read-out: SENP7 IC50
T1 sequence (Q9BQF6 760-1050 limits assumed): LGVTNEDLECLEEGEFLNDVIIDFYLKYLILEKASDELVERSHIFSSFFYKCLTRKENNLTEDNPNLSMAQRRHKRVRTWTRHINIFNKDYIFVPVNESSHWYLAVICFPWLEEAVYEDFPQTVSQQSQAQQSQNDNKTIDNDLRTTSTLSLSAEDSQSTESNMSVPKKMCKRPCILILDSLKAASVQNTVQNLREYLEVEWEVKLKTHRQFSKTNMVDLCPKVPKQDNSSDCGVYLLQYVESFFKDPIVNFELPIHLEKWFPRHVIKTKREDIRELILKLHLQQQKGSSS

[2] = biological target: T2, SENP2 (Homo sapiens, UniProt Q9HC62); test: DUB-Glo bioluminescent peptide substrate assay, SENP2; type: biochemical; details: read-out: SENP2 IC50
T2 sequence (Q9HC62 364-589): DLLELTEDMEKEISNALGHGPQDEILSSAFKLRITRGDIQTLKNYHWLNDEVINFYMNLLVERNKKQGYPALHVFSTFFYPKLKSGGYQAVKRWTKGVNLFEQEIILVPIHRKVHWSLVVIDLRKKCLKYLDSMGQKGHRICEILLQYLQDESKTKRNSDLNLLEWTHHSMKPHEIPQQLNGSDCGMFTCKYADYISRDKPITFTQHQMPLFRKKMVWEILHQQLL

[3] = tested on: HeLa cells; test: Cellular SENP inhibition: SUMOylated proteins in HeLa cells by Western blot; type: cell-based; details: increasing concentrations, 48 h

IC50 [1] [µM] | IC50 [2] [µM] | Compound | accumulation of SUMO-1 conjugates in cells [3] | accumulation of SUMO-2/3 conjugates in cells [3]
1.9 ± 2.1 |  | Nc1ccc2cc(S(=O)(=O)O)cc(S(=O)(=O)O)c2c1N=Nc1ccc(S(=O)(=O)O)cc1 [SPI-09] |  | 
1.9 ± 2.2 | > 60 | Cc1cc(N)ccc1/N=N/c1cc(S(=O)(=O)O)c2cccc(S(=O)(=O)O)c2c1 [SPI-07] |  | 
2.8 ± 1.6 |  | Nc1c(N=Nc2ccccc2)cc(S(=O)(=O)O)c2ccccc12 [SPI-08] |  | 
 |  | Nc1ccc2ccccc2c1N=Nc1ccc(/C=C/c2ccc(N=Nc3c(N)ccc4ccccc34)cc2S(=O)(=O)O)c(S(=O)(=O)O)c1 [SPI-01] | less significant effects | SUMO-2/3 conjugates accumulated in cells and this accumulation correlated with inhibitor concentration

From PMC3840147 (ACS chemical biology, 2013)
